Results as given in patent publication US9751837B2, “Kinase inhibitors” (RESPIVERT LIMITED, priority 2014, dated 2017).
Converted amounts (≈) assume the structure as drawn. Where two headings read alike, the source gives them in different places.

Tests used:
GSK 3α = GSK 3α (Homo sapiens (Human), UniProt P49840); assay: GSK 3α enzyme inhibition (Method 2), Z-LYTE FRET; format: biochemical; details: read-out: IC50 Values for Enzyme Inhibition GSK3α
Experimental: The enzyme inhibitory activities of compounds disclosed herein are determined by FRET using synthetic peptides labelled with both donor and acceptor fluorophores (Z-LYTE, Invitrogen Ltd., Paisley, UK).
The following two assay variants can be used for determination of GSK 3α inhibition.
The inhibitory activities of compounds of the invention against the GSK 3α enzyme isoform (Invitrogen), are evaluated by determining the level of activation/phosphorylation of the target peptide. The GSK3-α protein (500 ng/mL, 2.5 μL) is mixed with the test compound (2.5 μL at either 4 μg/mL, 0.4 μg/mL, 0.04 μg/mL, or 0.004 μg/mL) for 2 hr at RT. The FRET peptide (8 μM, 2.5 μL), which is a phosphorylation target for GSK3α, and ATP (40 μM, 2.5 μL) are then added to the enzyme/compound mixture and the resulting mixture incubated for 1 hr. Development reagent (protease, 5 μL) is added for 1 hr prior to detection in a fluorescence microplate reader (Varioskan® Flash, ThermoFisher Scientific).
In all cases, the site-specific protease cleaves non-phosphorylated peptide only and eliminates the FRET signal. Phosphorylation levels of each reaction are calculated using the ratio of coumarin emission (donor) over fluorescein emission (acceptor), for which high ratios indicate high phosphorylation and low ratios indicate low phosphorylation levels.
This method follows the same steps as Method 1 above, but utilises a shorter period of mixing of the test compound (105 minutes instead of 2 hours) with the GSK3-α protein. In addition, the concentrations of test compound employed are either 10 μg/mL, 1 μg/mL, 0.1 μg/mL, or 0.01 μg/mL

Jurkat cells = assay: Cell cytotoxicity assay (r); format: cell-based, human; details: 24 hours
Procedure, shortened: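 Viability read by flow cytometry as the fraction of propidium iodide-negative cells (7.5 μg/mL PI, 15 min), relative to 1.0% DMSO control. Beforehand, 1×10^5 Jurkat cells in RPMI/10% FBS were treated 24 h at 37° C., 5% CO2 with test compound at final 20, 5 or 1 μg/mL.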

[1] = Solubility in fasted-state simulated colonic fluid (FaSSCoF) at pH 6.5; format: physicochemical; details: 25 °C, pH 6.5, fassgf or other biorelevant, thermodynamic from solid
Procedure, shortened: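 Compounds were suspended at up to 2-10 mg/mL in pH 6.5 Tris/maleate FaSSCoF containing a five-bile-acid mixture, phosphatidylcholine, palmitic acid and BSA. After 24 h equilibration at 25° C the suspension was filtered and the filtrate quantified by HPLC peak area against a standard.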

[2] = Pharmacokinetics and total colon distribution after single oral administration; format: in vivo, male C57BL/6 mice; details: male, C57BL/6, mouse, mice, Ex. 16 measured after oral 5 mg/kg of Ex. 19 (Na salt)
Experimental: Studies were conducted by Sai Life Sciences (Hinjewadi, Pune, India) to investigate the systemic pharmacokinetics and total colon tissue distribution of compounds of the invention. In particular, pharmacokinetic studies were carried out in male C57BL/6 mice following a single oral administration of the compound.

[3] = pH 6.5 FaSSCoF Solubility (mg/mL) Run 1
[4] = pH 6.5 FaSSCoF Solubility (mg/mL) Run 2
[5] = blood, read-out: Mean blood concentration
[6] = total colon, read-out: total colon level

Chain of GSK 3α (P49840 whole entry): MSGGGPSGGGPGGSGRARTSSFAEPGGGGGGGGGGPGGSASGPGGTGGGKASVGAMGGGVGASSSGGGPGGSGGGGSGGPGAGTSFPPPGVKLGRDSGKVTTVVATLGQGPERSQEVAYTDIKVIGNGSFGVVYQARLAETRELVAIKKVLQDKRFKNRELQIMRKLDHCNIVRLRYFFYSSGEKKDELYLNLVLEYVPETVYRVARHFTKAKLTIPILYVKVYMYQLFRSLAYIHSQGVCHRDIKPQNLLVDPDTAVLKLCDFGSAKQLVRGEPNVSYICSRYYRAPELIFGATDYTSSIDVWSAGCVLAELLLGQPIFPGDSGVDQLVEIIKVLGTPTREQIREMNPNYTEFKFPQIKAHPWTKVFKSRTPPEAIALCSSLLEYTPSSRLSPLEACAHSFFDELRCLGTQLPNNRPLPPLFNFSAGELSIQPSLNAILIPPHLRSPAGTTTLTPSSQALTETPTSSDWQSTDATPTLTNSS

Row | Structure (SMILES) | IC50 (GSK 3α) | % Viability at 20 μg/mL (Jurkat cells) | solubility thermodynamic at 24 h [1, 3] | solubility thermodynamic at 24 h [1, 4] | other results
1 | COCCN(C)CCNC(=O)c1ccc(Nc2cc(Oc3ccc(NC(=O)Nc4cc(C(C)(C)C)cc(NS(C)(=O)=O)c4OC)c4ccccc34)ccn2)cc1OC [17(ad), 4-[[4-[[4-[[5-tert-butyl-3-(methanesulfonamido)-2-methoxy-phenyl]carbamoylamino]-1-naphthyl]oxy]-2-pyridyl]amino]-2-methoxy-N-[2-[2-methoxyethyl(methyl)amino]ethyl]-benzamide] | 3.06 µM | 0.4% | – | – | % Viability at 5 μg/mL (Jurkat cells; 5 μg/mL): 6.3%
2 | COc1cc(Nc2cc(Oc3ccc(NC(=O)Nc4cc(C(C)(C)C)cc(NS(C)(=O)=O)c4OC)c4ccccc34)ccn2)cc(OC)c1C(=O)NCCN1CCOCC1 [17(ae), 4-[[4-[[4-[[5-tert-butyl-3-(methanesulfonamido)-2-methoxy-phenyl]carbamoylamino]-1-naphthyl]oxy]-2-pyridyl]amino]-2,6-dimethoxy-N-(2-morpholinoethyl)benzamide] | 3 µM | – | 11 µg/mL (≈ 13.1 µM) | 12 µg/mL (≈ 14.3 µM) | –
3 | COc1cc(Nc2cc(Oc3ccc(NC(=O)Nc4cc(C(C)(C)C)cc(NS(C)(=O)=O)c4OC)c4ccccc34)ccn2)ccc1C(=O)N(C)CCCN1CCOCC1 [17(af), 4-[[4-[[4-[[5-tert-butyl-3-(methanesulfonamido)-2-methoxy-phenyl]carbamoylamino]-1-naphthyl]oxy]-2-pyridyl]amino]-2-methoxy-N-methyl-N-(3-morpholinopropyl)benzamide] | 0.68 µM | – | 10 µg/mL (≈ 11.9 µM) | 10 µg/mL (≈ 11.9 µM) | –
4 | COc1cc(Nc2cc(Oc3ccc(NC(=O)Nc4cc(C(C)(C)C)cc(NS(C)(=O)=O)c4OC)c4ccccc34)ccn2)ccc1C(=O)NCC1CCN(C)CC1 [17(ak), 4-[[4-[[4-[[5-tert-butyl-3-(methanesulfonamido)-2-methoxy-phenyl]carbamoylamino]-1-naphthyl]oxy]-2-pyridyl]amino]-2-methoxy-N-[(1-methyl-4-piperidyl)methyl]benzamide] | 1.82 µM | 0.4% | – | – | % Viability at 1 μg/mL (Jurkat cells; 1 μg/mL): 99.0%
5 | COc1cc(Nc2cc(Oc3ccc(NC(=O)Nc4cc(C(C)(C)C)cc(NS(C)(=O)=O)c4OC)c4ccccc34)ccn2)ccc1C(=O)NCCCN1CCOCC1 [17(b), 4-[[4-[[4-[[5-tert-butyl-3-(methanesulfonamido)-2-methoxy-phenyl]carbamoylamino]-1-naphthyl]oxy]-2-pyridyl]amino]-2-methoxy-N-(3-morpholinopropyl)benzamide] | 4.49 µM | – | 15 µg/mL (≈ 18.2 µM) | 15 µg/mL (≈ 18.2 µM) | –
6 | COc1cc(Nc2cc(Oc3ccc(NC(=O)Nc4cc(C(C)(C)C)cc(NS(C)(=O)=O)c4OC)c4ccccc34)ccn2)ccc1C(=O)NCCN1CCCCC1 [17(p), 4-[[4-[[4-[[5-tert-butyl-3-(methanesulfonamido)-2-methoxy-phenyl]carbamoylamino]-1-naphthyl]oxy]-2-pyridyl]amino]-2-methoxy-N-[2-(1-piperidyl)ethyl]benzamide] | 4.68 µM | 1.5% | – | – | –
7 | COc1cc(Nc2cc(Oc3ccc(NC(=O)Nc4cc(C(C)(C)C)cc(NS(C)(=O)=O)c4OC)c4ccccc34)ccn2)ccc1C(=O)N[C@@H](C)CN1CCOCC1 [17(v), 4-[[4-[[4-[[5-tert-butyl-3-(methanesulfonamido)-2-methoxy-phenyl]carbamoylamino]-1-naphthyl]oxy]-2-pyridyl]amino]-2-methoxy-N-[(1S)-1-methyl-2-morpholino-ethyl]benzamide] | > 12.1 µM | – | 8 µg/mL (≈ 9.69 µM) | 8 µg/mL (≈ 9.69 µM) | –
8 | COc1cc(Nc2cc(Oc3ccc(NC(=O)Nc4cc(C(C)(C)C)cc(NS(C)(=O)=O)c4OC)c4ccccc34)ccn2)ccc1C(=O)NCCOCCOCCC(=O)O [17(x), 3-[2-[2-[[4-[[4-[[4-[[5-tert-butyl-3-(methanesulfonamido)-2-methoxyphenyl]carbamoyl-amino]-1-naphthyl]oxy]-2-pyridyl]amino]-2-methoxy-benzoyl]amino]ethoxy]ethoxy]propanoic acid] | 0.412 µM | – | 15 µg/mL (≈ 17.5 µM) | 9 µg/mL (≈ 10.5 µM) | –
9 | COc1cc(Nc2cc(Oc3ccc(NC(=O)Nc4cc(C(C)(C)C)cc(NS(C)(=O)=O)c4OC)c4ccccc34)ccn2)ccc1C(=O)NCCN1CCN(CCO)CC1 [17(z), 4-[[4-[[4-[[5-tert-butyl-3-(methanesulfonamido)-2-methoxy-phenyl]carbamoylamino]-1-naphthyl]oxy]-2-pyridyl]amino]-N-[2-[4-(2-hydroxyethyl)piperazin-1-yl]ethyl]-2-methoxy-benzamide] | 2.88 µM | 2.0% | – | – | –
10 | COc1cc(Nc2cc(Oc3ccc(NC(=O)Nc4cc(C(C)(C)C)cc(C(N)=O)c4OC)c4ccccc34)ccn2)ccc1C(=O)O [Example 3, 4-((4-((4-(3-(5-(tert-Butyl)-3-carbamoyl-2-methoxyphenyl)ureido)naphthalen-1-yl)oxy)pyridin-2-yl)amino)-2-methoxybenzoic acid] | 0.139 µM | – | 6 µg/mL (≈ 9.23 µM) | 6 µg/mL (≈ 9.23 µM) | –
11 | COc1cc(Nc2cc(Oc3ccc(NC(=O)Nc4cc(C(C)(C)C)cc(NS(C)(=O)=O)c4OC)c4ccccc34)ccn2)ccc1C(=O)NCCOCCOCCO [Example 16, 4-[[4-[[4-[[5-tert-Butyl-3-(methanesulfonamido)-2-methoxy-phenyl]carbamoylamino]-1-naphthyl]oxy]-2-pyridyl]amino]-N-[2-[2-(2-hydroxyethoxy)ethoxy]ethyl]-2-methoxy-benzamide] | 3.73 µM | – | 4 µg/mL (≈ 4.81 µM) | 4 µg/mL (≈ 4.81 µM) | concentration at 0.5 h [2, 5]: 1.3 ng/mL; concentration at 1 h [2, 5]: 1.4 ng/mL; concentration at 2 h [2, 5]: 0.6 ng/mL; concentration at 4 h [2, 5]: 0 ng/mL; concentration at 6 h [2, 5]: 0 ng/mL; concentration at 8 h [2, 5]: 0.2 ng/mL; concentration at 12 h [2, 5]: 0 ng/mL; concentration at 24 h [2, 5]: 0 ng/mL; concentration at 0.5 h [2, 6]: 9.5 ng/g; concentration at 1 h [2, 6]: 110 ng/g; concentration at 2 h [2, 6]: 2400 ng/g; concentration at 4 h [2, 6]: 3350 ng/g; concentration at 6 h [2, 6]: 3320 ng/g; concentration at 8 h [2, 6]: 3420 ng/g; concentration at 12 h [2, 6]: 5090 ng/g; concentration at 24 h [2, 6]: 0 ng/g
